“Also recorded” adds a separate entry of the source.
Legend:
[1] = molecular target: cT1R1-NTD (N-terminal domain of the cat T1R1 taste receptor) (Felis catus, UniProt A0ABI7Z2I4); assay: Ligand binding assay by intrinsic tryptophan fluorescence of refolded cT1R1-NTD; details: for synergetic effect of IMP on L-amino acid binding (shift of binding curve): 0.3 μM IMP final concentration; for maximal amplitude of cT1R1-NTD fluorescence induced by the amino acid in presence of IMP: compared to the other tested L-amino acids
Procedure: The intrinsic fluorescence of cT1R1-NTD was measured as previously described by Nie et al. using a Cary Eclipse spectrofluorometer (Varian Instruments) equipped with a Peltier temperature control unit. Sample proteins were excited at 295 nm and emission spectra were recorded from 300 to 400 nm, with 5-nm and 10-nm bandwidth for emission and excitation, respectively. For titration experiments, fluorescence spectra were recorded using 0.5 μM protein solution in 50 mM Tris-HCl pH 8.0, 150 mM NaCl, 1mM DTT and 0.1 mM DDM. Ligand solutions were freshly prepared in the same buffer. Successive aliquots of potential ligands were added to 400 μL of cT1R1-NTD solution. The temperature was kept constant at 20°C. Fluorescence measurements were corrected for dilution, bleaching and nonspecific buffer quenching. Kd values and standard errors were calculated from a plot of the ratio between the fluorescence intensity variation and the maximum of fluorescence intensity variation versus concentration of total ligand, obtained with a standard non-linear regression method and using one site saturation ligand binding equation using SigmaPlot software. […] The Kd values of ligand-receptor interactions were determined using Eq (1) ΔF/ΔFmax = Bmax×[L]/(Kd+[L]) (1) Where Kd value is the apparent dissociation constant, ΔF is the difference between the fluorescence intensity at a given concentration of ligand and the fluorescence intensity in the absence of ligand, and ΔFmax is the difference at infinite ligand concentration [L], Bmax is the maximum fluorescence signal, [L] corresponds to the concentration of ligands. The reported Kd values are the average of more than nine measurements performed on at least three independently refolded protein samples. […] Statistical analyses: Dunnett’s test was used to determine the statistical significance between data means.

human T1R3-NTD = molecular target: human T1R3-NTD; design: method as in PMID 22450161, PMID 22909933; details: cited from earlier work
[2] = ligand alone, no IMP, Fig 6: 100 μM final concentration, excitation 295 nm, emission 340 nm

cT1R1-NTD (N-terminal domain of the cat T1R1 taste receptor), sequence (A0ABI7Z2I4 entry or part of it): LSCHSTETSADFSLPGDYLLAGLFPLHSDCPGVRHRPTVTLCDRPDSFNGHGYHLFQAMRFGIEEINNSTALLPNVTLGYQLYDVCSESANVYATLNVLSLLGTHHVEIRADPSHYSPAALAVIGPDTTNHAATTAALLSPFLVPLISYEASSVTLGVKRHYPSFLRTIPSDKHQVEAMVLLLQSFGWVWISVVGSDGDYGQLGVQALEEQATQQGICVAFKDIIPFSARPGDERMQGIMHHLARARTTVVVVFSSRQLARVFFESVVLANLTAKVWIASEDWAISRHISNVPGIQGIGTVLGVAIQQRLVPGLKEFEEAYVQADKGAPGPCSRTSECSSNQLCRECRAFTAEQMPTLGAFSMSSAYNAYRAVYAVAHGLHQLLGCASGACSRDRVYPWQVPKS

SMILES | synergetic effect of IMP on L-amino acid binding (shift of binding curve) [1] | effect on cT1R1-NTD intrinsic fluorescence [1, 2] | further results
Nc1nc2c(ncn2[C@@H]2O[C@H](COP(=O)(O)O)[C@@H](O)[C@H]2O)c(=O)[nH]1 [GMP, guanosine-5’-monophosphate] |  |  | effect on cT1R1-NTD intrinsic fluorescence ([1]; GMP alone at low concentrations (below 1 μM)): fluorescence enhancement
C[C@H](N)C(=O)O [L-Ala, L-alanine] | relatively modest | saturable intrinsic fluorescent enhancement | 
N=C(N)NCCC[C@H](N)C(=O)O [L-Arg] | relatively modest | saturable intrinsic fluorescent enhancement | maximal amplitude of cT1R1-NTD fluorescence induced by the amino acid in presence of IMP ([1]; 0.3 μM IMP): increased
N[C@@H](CS)C(=O)O [L-Cys] |  | no effect; also recorded: does not affect cT1R1-NTD fluorescence | fluorescence enhancement of cT1R1-NTD generated by 0.3 μM IMP in the presence of the amino acid ([1]; 0.3 μM IMP, compared with absence of L-Cys): not significantly different
N[C@@H](Cc1c[nH]cn1)C(=O)O [L-His, L-histidine] | more pronounced | saturable intrinsic fluorescent enhancement | maximal amplitude of cT1R1-NTD fluorescence induced by the amino acid in presence of IMP ([1]; 0.3 μM IMP): increased
CC[C@H](C)[C@H](N)C(=O)O [L-Ile] | relatively modest | saturable intrinsic fluorescent enhancement | 
OC[C@H]1O[C@H](O[C@]2(CCl)O[C@H](CCl)[C@@H](O)[C@@H]2O)[C@H](O)[C@@H](O)[C@H]1Cl [sucralose] |  |  | binding affinity (human T1R3-NTD): millimolar range
